The text below walks through data of patent publication EP3046573B1, “AMYLIN ANALOGUES” (Zealand Pharma A/S, priority 2013, dated 2015).

Data set [1] deals with T1, human calcitonin receptor (hCTR2) (Homo sapiens, UniProt P30988).
T1 construct: expressed in transfected cells
T1 sequence (P30988 25-474): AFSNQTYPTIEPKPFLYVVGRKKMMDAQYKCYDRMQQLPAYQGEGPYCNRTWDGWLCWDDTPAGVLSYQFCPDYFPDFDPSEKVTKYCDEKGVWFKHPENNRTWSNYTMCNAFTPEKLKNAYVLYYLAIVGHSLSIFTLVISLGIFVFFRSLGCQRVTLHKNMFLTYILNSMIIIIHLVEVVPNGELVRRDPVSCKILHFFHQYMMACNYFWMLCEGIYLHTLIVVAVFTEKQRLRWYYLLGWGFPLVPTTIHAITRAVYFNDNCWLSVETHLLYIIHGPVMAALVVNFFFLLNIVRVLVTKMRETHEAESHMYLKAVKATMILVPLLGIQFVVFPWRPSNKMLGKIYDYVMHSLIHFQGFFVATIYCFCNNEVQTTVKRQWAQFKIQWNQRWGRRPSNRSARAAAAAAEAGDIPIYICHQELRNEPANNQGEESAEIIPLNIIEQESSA
The experiment in a line: hCTR2 assay: induction of cAMP (AlphaScreen cAMP Assay kit) in COS7 cells expressing hCTR2. It is filed as cell-based. Summed up:
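Peptide-induced cAMP in hCTR2-expressing COS7 cells, 15 min at 37° C with phosphodiesterase inhibitor IBMX (100 µM), detected by AlphaScreen; potency from 4PL curves.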

The nature of data set [2]: Solubility assessment (turbidity absorbance at 325 nm). It is filed as physicochemical. Conditions: stock 2 mg/ml diluted 1:1, ambient temperature (typically 25°C), n=1; for Solubility, Acetate buffer pH 4: 100 mM acetate buffer pH 4.0; for Solubility, Acetate buffer pH 5: 100 mM acetate buffer pH 5.0; for Solubility, Histidine buffer pH 6: 100 mM histidine buffer pH 6.0; for Solubility, Histidine buffer pH 7: 100 mM histidine buffer pH 7.0; for Solubility, Phosphate buffer pH 6: 100 mM phosphate buffer pH 6.0; for Solubility, Phosphate buffer pH 7: 100 mM phosphate buffer pH 7.0; for Solubility, Phosphate buffer pH 7.5: 100 mM phosphate buffer pH7.5. Summed up: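 Turbidimetric screen across pH 4.0–7.5 in 100 mM acetate, histidine and phosphate buffers. A 2 mg/ml peptide stock (pH 2.5) was diluted 1:1 into each, then A325 measured at ambient temperature; values ≤ 0.02 AU denoted solubility of 1 mg/ml or more.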

The mark [3] stands for this setting: cAMP induction in COS7 cells expressing hCTR2, average of a minimum of 3 determinations, read-out: hCTR2 EC50.

Like-named read-outs stand apart in the source and are kept apart here. Numbered stars: 1 amine (or outer) side, 2 acyl side, 3 side chain; on linkers, the order of the positions; unused ones are H or OH. Bridge positions count the residues as written; N and C are the ends. Square brackets hold non-standard residues; d marks the D form. Peptide text beside a SMILES is read from it. * marks the point of attachment. C20 diacid = O=C(O)CCCCCCCCCCCCCCCCCCC(=O)*; γGlu = O=C(O)[C@H](CCC(=O)[*:2])N[*:1]; NMeI = CC[C@H](C)[C@H](NC)C(=O)O; NMeA = CN[C@@H](C)C(=O)O; Sar = CNCC(=O)O

Turning to `CC[C@H](C)[C@@H](C(=O)N[C@@H](CO)C(=O)N[C@@H](CO)C(=O)N[C@H](C(=O)N[C@@H](CC(N)=O)C(=O)N[C@H](C(=O)NCC(=O)N[C@@H](CO)C(=O)N[C@@H](CC(N)=O)C(=O)N[C@H](C(=O)N1CCC[C@H]1C(N)=O)[C@@H](C)O)C(C)C)[C@@H](C)O)N(C)C(=O)CN(C)C(=O)[C@H](Cc1ccccc1)NC(=O)[C@H](CC(N)=O)NC(=O)[C@H](CC(N)=O)NC(=O)[C@H](CO)NC(=O)[C@H](CO)NC(=O)[C@H](Cc1c[nH]cn1)NC(=O)[C@H](Cc1c[nH]cn1)NC(=O)[C@H](CC(C)C)NC(=O)[C@H](Cc1ccccc1)NC(=O)[C@H](CCC(=O)O)NC(=O)[C@H](C)NC(=O)[C@H](CC(C)C)NC(=O)[C@H](CCCNC(=N)N)NC(=O)[C@H](CCC(N)=O)NC(=O)[C@@H](NC(=O)[C@H](C)NC(=O)[C@@H]1CSSC[C@H](NC(=O)[C@H](CCCNC(=N)N)NC(=O)CC[C@H](NC(=O)CCCCCCCCCCCCCCCCCCC(=O)O)C(=O)O)C(=O)N[C@@H](CC(N)=O)C(=O)N[C@@H]([C@@H](C)O)C(=O)N[C@@H](C)C(=O)N[C@@H]([C@@H](C)O)C(=O)N1)[C@@H](C)O` [Compound 55, [19CD]-isoGlu-RC()NTATC()ATQRLAEFLHHSSNNF-Gly(Me)-Ile(Me)-SSTNVGSNTP-NH2] ({C20 diacid-γGlu}-RCNTATCATQRLAEFLHHSSNNF[Sar][NMeI]SSTNVGSNTP-NH2; disulfide 2-7), the concentration giving a half-maximal response (EC50) in data set [1] (setting [3]) worked out at 0.076 nM. In data set [2], the “Solubility, Acetate buffer pH 4” value is recorded as “II (II indicates solubility ≤ 1 mg/ml)”; the “Solubility, Acetate buffer pH 5” value is “II (II indicates solubility ≤ 1 mg/ml)”; the “Solubility, Histidine buffer pH 6” value is reported as “II (II indicates solubility ≤ 1 mg/ml)”; the “Solubility, Histidine buffer pH 7” value is “II (II indicates solubility ≤ 1 mg/ml)”. In data set [2], the “Solubility, Phosphate buffer pH 6” value is listed as “II (II indicates solubility ≤ 1 mg/ml)”; the “Solubility, Phosphate buffer pH 7” value is listed as “II (II indicates solubility ≤ 1 mg/ml)”; the “Solubility, Phosphate buffer pH 7.5” value is given as “II (II indicates solubility ≤ 1 mg/ml)”.
Regarding `CC[C@H](C)[C@@H](C(=O)N[C@@H](CC(C)C)C(=O)N[C@@H](CO)C(=O)N[C@@H](CO)C(=O)N[C@H](C(=O)N[C@@H](CC(N)=O)C(=O)N[C@H](C(=O)NCC(=O)N[C@@H](CO)C(=O)N[C@@H](CC(N)=O)C(=O)N[C@H](C(=O)N1CCC[C@H]1C(N)=O)[C@@H](C)O)C(C)C)[C@@H](C)O)N(C)C(=O)[C@H](C)NC(=O)[C@H](C)N(C)C(=O)[C@H](Cc1ccccc1)NC(=O)[C@H](CC(N)=O)NC(=O)[C@H](CC(N)=O)NC(=O)[C@H](CO)NC(=O)[C@H](CO)NC(=O)[C@H](Cc1c[nH]cn1)NC(=O)[C@H](Cc1c[nH]cn1)NC(=O)[C@H](CC(C)C)NC(=O)[C@H](Cc1ccccc1)NC(=O)[C@H](CCC(=O)O)NC(=O)[C@H](C)NC(=O)[C@H](CC(C)C)NC(=O)[C@H](CCCNC(=N)N)NC(=O)[C@H](CCC(N)=O)NC(=O)[C@@H](NC(=O)[C@H](C)NC(=O)[C@@H]1CSSC[C@H](NC(=O)[C@H](CCCNC(=N)N)NC(=O)CC[C@H](NC(=O)CCCCCCCCCCCCCCCCCCC(=O)O)C(=O)O)C(=O)N[C@@H](CC(N)=O)C(=O)N[C@@H]([C@@H](C)O)C(=O)N[C@@H](C)C(=O)N[C@@H]([C@@H](C)O)C(=O)N1)[C@@H](C)O` [Compound 56, [19CD]-isoGlu-RC()NTATC()ATQRLAEFLHHSSNNF-Ala(Me)-A-Ile(Me)-LSSTNVGSNTP-NH2] ({C20 diacid-γGlu}-RCNTATCATQRLAEFLHHSSNNF[NMeA]A[NMeI]LSSTNVGSNTP-NH2; disulfide 2-7), in data set [1] (setting [3]), the EC50 came out at 0.14 nM. In data set [2], the “Solubility, Acetate buffer pH 4” value was “SS (SS indicates solubility ≥ 1mg/ml)”; the “Solubility, Acetate buffer pH 5” value is recorded as “II (II indicates solubility ≤ 1 mg/ml)”; the “Solubility, Histidine buffer pH 6” value is reported as “II (II indicates solubility ≤ 1 mg/ml)”; the “Solubility, Histidine buffer pH 7” value is listed as “II (II indicates solubility ≤ 1 mg/ml)”. Also, in data set [2], the “Solubility, Phosphate buffer pH 6” value is “II (II indicates solubility ≤ 1 mg/ml)”; the “Solubility, Phosphate buffer pH 7” value is on record as “II (II indicates solubility ≤ 1 mg/ml)”; the “Solubility, Phosphate buffer pH 7.5” value is given as “II (II indicates solubility ≤ 1 mg/ml)”.
As for `CC[C@H](C)[C@@H](C(=O)N[C@@H](CC(C)C)C(=O)N[C@@H](CO)C(=O)N[C@@H](CO)C(=O)N[C@H](C(=O)N[C@@H](CC(N)=O)C(=O)N[C@H](C(=O)NCC(=O)N[C@@H](CO)C(=O)N[C@@H](CC(N)=O)C(=O)N[C@H](C(=O)N1CCC[C@H]1C(N)=O)[C@@H](C)O)C(C)C)[C@@H](C)O)N(C)C(=O)CN(C)C(=O)[C@H](Cc1ccccc1)NC(=O)[C@H](CC(N)=O)NC(=O)[C@H](CC(N)=O)NC(=O)[C@H](CO)NC(=O)[C@H](CO)NC(=O)[C@H](CCCNC(=N)N)NC(=O)[C@H](Cc1c[nH]cn1)NC(=O)[C@H](CC(C)C)NC(=O)[C@H](Cc1ccccc1)NC(=O)[C@H](CCC(=O)O)NC(=O)[C@H](C)NC(=O)[C@H](CC(C)C)NC(=O)[C@H](CCCNC(=N)N)NC(=O)[C@H](CCC(N)=O)NC(=O)[C@@H](NC(=O)[C@H](C)NC(=O)[C@@H]1CSSC[C@H](NC(=O)[C@H](CCCCN)NC(=O)CC[C@H](NC(=O)CCCCCCCCCCCCCCCCCCC(=O)O)C(=O)O)C(=O)N[C@@H](CC(N)=O)C(=O)N[C@@H]([C@@H](C)O)C(=O)N[C@@H](C)C(=O)N[C@@H]([C@@H](C)O)C(=O)N1)[C@@H](C)O` [Compound 58, [19CD]-isoGlu-KC()NTATC()ATQRLAEFLHRSSNNF-Gly(Me)-Ile(Me)-LSSTNVGSNTP-NH2] ({C20 diacid-γGlu}-KCNTATCATQRLAEFLHRSSNNF[Sar][NMeI]LSSTNVGSNTP-NH2; disulfide 2-7), the concentration for a half-maximal effect (EC50) in data set [1] (setting [3]) amounted to 0.11 nM. In data set [2], the “Solubility, Acetate buffer pH 4” value was “SS (SS indicates solubility ≥ 1mg/ml)”; the “Solubility, Acetate buffer pH 5” value was “SS (SS indicates solubility ≥ 1mg/ml)”; the “Solubility, Histidine buffer pH 6” value is reported as “SS (SS indicates solubility ≥ 1mg/ml)”; the “Solubility, Histidine buffer pH 7” value is recorded as “SS (SS indicates solubility ≥ 1mg/ml)”. Moreover, in data set [2], the “Solubility, Phosphate buffer pH 6” value is “SS (SS indicates solubility ≥ 1mg/ml)”; the “Solubility, Phosphate buffer pH 7” value was “II (II indicates solubility ≤ 1 mg/ml)”; the “Solubility, Phosphate buffer pH 7.5” value is reported as “SS (SS indicates solubility ≥ 1mg/ml)”.
For `CC[C@H](C)[C@@H](C(=O)N[C@@H](CC(C)C)C(=O)N[C@H](CO)C(=O)N[C@@H](CO)C(=O)N[C@H](C(=O)N[C@@H](CC(N)=O)C(=O)N[C@H](C(=O)NCC(=O)N[C@@H](CO)C(=O)N[C@@H](CC(N)=O)C(=O)N[C@H](C(=O)N1CCC[C@H]1C(N)=O)[C@@H](C)O)C(C)C)[C@@H](C)O)N(C)C(=O)[C@H](C)NC(=O)CN(C)C(=O)[C@@H](Cc1ccccc1)NC(=O)[C@H](CC(N)=O)NC(=O)[C@H](CC(N)=O)NC(=O)[C@H](CO)NC(=O)[C@H](CO)NC(=O)[C@H](Cc1c[nH]cn1)NC(=O)[C@H](Cc1c[nH]cn1)NC(=O)[C@H](CC(C)C)NC(=O)[C@H](Cc1ccccc1)NC(=O)[C@H](CCC(=O)O)NC(=O)[C@H](C)NC(=O)[C@H](CC(C)C)NC(=O)[C@H](CCCNC(=N)N)NC(=O)[C@H](CCC(N)=O)NC(=O)[C@@H](NC(=O)[C@H](C)NC(=O)[C@@H]1CSSC[C@H](NC(=O)[C@H](CCCNC(=N)N)NC(=O)CC[C@H](NC(=O)CCCCCCCCCCCCCCCCCCC(=O)O)C(=O)O)C(=O)N[C@@H](CC(N)=O)C(=O)N[C@@H]([C@@H](C)O)C(=O)N[C@@H](C)C(=O)N[C@@H]([C@@H](C)O)C(=O)N1)[C@@H](C)O` [Compound 59, [19CD]-isoGlu-RC()NTATC()ATQRLAEFLHHSSNN-DPhe-Gly(Me)-A-Ile(Me)-L-DSer-STNVGSNTP-NH2] ({C20 diacid-γGlu}-RCNTATCATQRLAEFLHHSSNN[dF][Sar]A[NMeI]L[dS]STNVGSNTP-NH2; disulfide 2-7), in data set [1], the EC50 was determined as 0.14 nM. Further, in data set [2], the “Solubility, Acetate buffer pH 4” value is “SS (SS indicates solubility ≥ 1mg/ml)”; the “Solubility, Acetate buffer pH 5” value is on record as “SS (SS indicates solubility ≥ 1mg/ml)”; the “Solubility, Histidine buffer pH 6” value is on record as “SS (SS indicates solubility ≥ 1mg/ml)”; the “Solubility, Histidine buffer pH 7” value is recorded as “SS (SS indicates solubility ≥ 1mg/ml)”. In data set [2], the “Solubility, Phosphate buffer pH 6” value is “SS (SS indicates solubility ≥ 1mg/ml)”; the “Solubility, Phosphate buffer pH 7” value is reported as “II (II indicates solubility ≤ 1 mg/ml)”; the “Solubility, Phosphate buffer pH 7.5” value was “SS (SS indicates solubility ≥ 1mg/ml)”.
